Test results taken from US20010007152A1, “RECOMBINANT CONSTRUCTS ENCODING T CELL RECEPTORS SPECIFIC FOR HUMAN HLA-RESTRICTED TUMOR ANTIGENS” (priority 1996, published 2001).

Legend:
HLA A2.1 = target: T1, HLA A2.1 (UniProt P01901+P04439, D140Y/D185E/D98H/E176V/G131W/I119V/I121R/I166T/N151K/N90K/Q86G/Q94H/R138H/R169H); experiment: Competition assay: inhibition of influenza matrix peptide M1 (58-66) binding to A2.1, read as inhibition of lysis by an M1-specific CTL clone; design: species or system human; settings: test peptide 10 μg vs influenza matrix peptide 0.1 μg; T2-A2.1/K^b target cells
T1 construct: expressed in transfected cells; host or cells: T2-A2.1/K^b cells
Procedure: Briefly, each test peptide (10 μg) was incubated with radiolabeled target cells (T2-A2.1/K^b, 10^6 target cells labeled with […] ^51Cr at 37° for 1.5 hours) in the presence of an influenza virus matrix protein (0.1 μg). The ability of these peptides to inhibit the binding of the influenza matrix protein peptide MI (58-66) to A2.1 was measured by inhibition of lysis by an M1 (58-66) specific, A2.1 restricted CTL clone.

MDA.MB231 = experiment: Lysis of tumor cells by peptide-specific CTL; assay type: cell-based, human; settings: 6 hours; for Killing of tumor (lysis): MDA.MB231, breast, A2 +, Her-2 +, no cytokine preincubation; for Killing of tumor (lysis) + CYT: MDA.MB231, tumor preincubated 24 hours with 20 ng/ml γ-IFN and 3 ng/ml TNF-α
MCF-7 = experiment: Lysis of tumor cells by peptide-specific CTL; assay type: cell-based, human; settings: 6 hours; for Killing of tumor (lysis): MCF-7, breast, A2 +, Her-2 +, no cytokine preincubation; for Killing of tumor (lysis) + CYT: MCF-7, tumor preincubated 24 hours with 20 ng/ml γ-IFN and 3 ng/ml TNF-α
BT549 = experiment: Lysis of tumor cells by peptide-specific CTL; assay type: cell-based, human; settings: 6 hours; for Killing of tumor (lysis): BT549, breast, A2 +, Her-2 +, no cytokine preincubation; for Killing of tumor (lysis) + CYT: BT549, tumor preincubated 24 hours with 20 ng/ml γ-IFN and 3 ng/ml TNF-α
SAOS.175 = experiment: Lysis of tumor cells by peptide-specific CTL; assay type: cell-based, human; settings: 6 hours; for Killing of tumor (lysis): SAOS.175, osteosarcoma, A2 +, Her-2 +, no cytokine preincubation; for Killing of tumor (lysis) + CYT: SAOS.175, tumor preincubated 24 hours with 20 ng/ml γ-IFN and 3 ng/ml TNF-α
U2-OS = experiment: Lysis of tumor cells by peptide-specific CTL; assay type: cell-based, human; settings: 6 hours; for Killing of tumor (lysis) + CYT: tumor preincubated 24 hours with 20 ng/ml γ-IFN and 3 ng/ml TNF-α; for Killing of tumor (lysis): osteosarcoma, A2 +, Her-2 +, no cytokine preincubation
SW480 = experiment: Lysis of tumor cells by peptide-specific CTL; assay type: cell-based, human; settings: 6 hours; for Killing of tumor (lysis): SW480, colon, A2 +, Her-2 +, no cytokine preincubation; for Killing of tumor (lysis) + CYT: SW480, tumor preincubated 24 hours with 20 ng/ml γ-IFN and 3 ng/ml TNF-α
OVCAR-5 = experiment: Lysis of tumor cells by peptide-specific CTL; assay type: cell-based, human; settings: 6 hours; for Killing of tumor (lysis): OVCAR-5, ovarian, A2 +, Her-2 +, no cytokine preincubation; for Killing of tumor (lysis) + CYT: OVCAR-5, tumor preincubated 24 hours with 20 ng/ml γ-IFN and 3 ng/ml TNF-α
T98G = experiment: Lysis of tumor cells by peptide-specific CTL; assay type: cell-based, human; settings: 6 hours; for Killing of tumor (lysis) + CYT: tumor preincubated 24 hours with 20 ng/ml γ-IFN and 3 ng/ml TNF-α; for Killing of tumor (lysis): glioblastoma, A2 +, Her-2 +, no cytokine preincubation
MALME-3M = experiment: Lysis of tumor cells by peptide-specific CTL; assay type: cell-based, human; settings: 6 hours; for Killing of tumor (lysis) + CYT: tumor preincubated 24 hours with 20 ng/ml γ-IFN and 3 ng/ml TNF-α; for Killing of tumor (lysis): melanoma, A2 +, Her-2 +, no cytokine preincubation
SKMEL-5 = experiment: Lysis of tumor cells by peptide-specific CTL; assay type: cell-based, human; settings: 6 hours; for Killing of tumor (lysis): SKMEL-5, melanoma, A2 +, Her-2 +, no cytokine preincubation; for Killing of tumor (lysis) + CYT: SKMEL-5, tumor preincubated 24 hours with 20 ng/ml γ-IFN and 3 ng/ml TNF-α
NCl.H1355 = experiment: Lysis of tumor cells by peptide-specific CTL; assay type: cell-based, human; settings: 6 hours; for Killing of tumor (lysis): NCl.H1355, lung, A2 +, Her-2 +, no cytokine preincubation; for Killing of tumor (lysis) + CYT: NCl.H1355, tumor preincubated 24 hours with 20 ng/ml γ-IFN and 3 ng/ml TNF-α
Hep-G2 = experiment: Lysis of tumor cells by peptide-specific CTL; assay type: cell-based, human; settings: 6 hours; for Killing of tumor (lysis): Hep-G2, hepatoma, A2 +, Her-2 +, no cytokine preincubation; for Killing of tumor (lysis) + CYT: Hep-G2, tumor preincubated 24 hours with 20 ng/ml γ-IFN and 3 ng/ml TNF-α
CASKI = experiment: Lysis of tumor cells by peptide-specific CTL; assay type: cell-based, human; settings: 6 hours; for Killing of tumor (lysis) + CYT: tumor preincubated 24 hours with 20 ng/ml γ-IFN and 3 ng/ml TNF-α; for Killing of tumor (lysis): cervix, A2 +, Her-2 +, no cytokine preincubation
U87G = experiment: Lysis of tumor cells by peptide-specific CTL; assay type: cell-based, human; settings: 6 hours; for Killing of tumor (lysis) + CYT: tumor preincubated 24 hours with 20 ng/ml γ-IFN and 3 ng/ml TNF-α; for Killing of tumor (lysis): glioblastoma, A2 +, Her-2 −, no cytokine preincubation
ST486 = experiment: Lysis of tumor cells by peptide-specific CTL; assay type: cell-based, human; settings: 6 hours; for Killing of tumor (lysis): ST486, lymphoma, A2 +, Her-2 −, no cytokine preincubation; for Killing of tumor (lysis) + CYT: ST486, tumor preincubated 24 hours with 20 ng/ml γ-IFN and 3 ng/ml TNF-α
LG-2 = experiment: Lysis of tumor cells by peptide-specific CTL; assay type: cell-based, human; settings: 6 hours; for Killing of tumor (lysis): LG-2, EBV-trans., A2 +, Her-2 −, no cytokine preincubation; for Killing of tumor (lysis) + CYT: LG-2, tumor preincubated 24 hours with 20 ng/ml γ-IFN and 3 ng/ml TNF-α
SV80 = experiment: Lysis of tumor cells by peptide-specific CTL; assay type: cell-based, human; settings: 6 hours; for Killing of tumor (lysis): SV80, fibroblast, A2 +, Her-2 −, no cytokine preincubation; for Killing of tumor (lysis) + CYT: SV80, tumor preincubated 24 hours with 20 ng/ml γ-IFN and 3 ng/ml TNF-α
JY = experiment: Lysis of tumor cells by peptide-specific CTL; assay type: cell-based, human; settings: 6 hours; for Killing of tumor (lysis) + CYT: tumor preincubated 24 hours with 20 ng/ml γ-IFN and 3 ng/ml TNF-α; for Killing of tumor (lysis): lymphoma, A2 +, Her-2 −, no cytokine preincubation
MDA.MB435 = experiment: Lysis of tumor cells by peptide-specific CTL; assay type: cell-based, human; settings: 6 hours; for Killing of tumor (lysis): MDA.MB435, breast, A2 −, Her-2 +, no cytokine preincubation; for Killing of tumor (lysis) + CYT: MDA.MB435, tumor preincubated 24 hours with 20 ng/ml γ-IFN and 3 ng/ml TNF-α

DIDETEYHA [H18, Her-2/neu peptide 871-879]
% INHIBITION (HLA A2.1): 37%

DLLEKGERL [H19, Her-2/neu peptide 933-941]
% INHIBITION (HLA A2.1): 36%

DLVDAEEYL [H23, Her-2/neu peptide 1016-1024]
% INHIBITION (HLA A2.1): 35%

ELVSEFSRM [H20, Her-2/neu peptide 971-979]
% INHIBITION (HLA A2.1): 5%

ELVSEFSRMA [H21, Her-2/neu peptide 971-980]
% INHIBITION (HLA A2.1): 25%

HLYQGOQW [H12]
% INHIBITION (HLA A2.1): 15%

KIPVAIKVL [H14, Her-2/neu peptide 747-755]
% INHIBITION (HLA A2.1): 35%

KLVGKLNWA [HIV-9K, HIV POL peptide, known to be immunogenic, used as a control, reference compound]
Killing of tumor (lysis) (MDA.MB231): 3%
Killing of tumor (lysis) + CYT (MDA.MB231): 14
Killing of tumor (lysis) (MCF-7): 3%
Killing of tumor (lysis) + CYT (MCF-7): 7
Killing of tumor (lysis) (BT549): 2%
Killing of tumor (lysis) + CYT (BT549): 15
Killing of tumor (lysis) (SAOS.175): 18%
Killing of tumor (lysis) + CYT (SAOS.175): 11
Killing of tumor (lysis) + CYT (U2-OS): 24
Killing of tumor (lysis) (U2-OS): 18%
Killing of tumor (lysis) (SW480): 1%
Killing of tumor (lysis) + CYT (SW480): 4
Killing of tumor (lysis) (OVCAR-5): 10%
Killing of tumor (lysis) + CYT (OVCAR-5): 12
Killing of tumor (lysis) + CYT (T98G): 13
Killing of tumor (lysis) (T98G): 9%
Killing of tumor (lysis) + CYT (MALME-3M): 1
Killing of tumor (lysis) (MALME-3M): 2%
Killing of tumor (lysis) (SKMEL-5): 5%
Killing of tumor (lysis) + CYT (SKMEL-5): 4
Killing of tumor (lysis) (NCl.H1355): 7%
Killing of tumor (lysis) + CYT (NCl.H1355): 25
Killing of tumor (lysis) (Hep-G2): 1%
Killing of tumor (lysis) + CYT (Hep-G2): 8
Killing of tumor (lysis) + CYT (CASKI): 11
Killing of tumor (lysis) (CASKI): 8%
Killing of tumor (lysis) + CYT (U87G): 1
Killing of tumor (lysis) (U87G): 5%
Killing of tumor (lysis) (ST486): 1%
Killing of tumor (lysis) + CYT (ST486): 1
Killing of tumor (lysis) (LG-2): 1%
Killing of tumor (lysis) + CYT (LG-2): 1
Killing of tumor (lysis) (SV80): 2%
Killing of tumor (lysis) + CYT (SV80): 2
Killing of tumor (lysis) + CYT (JY): 1
Killing of tumor (lysis) (JY): 2%
Killing of tumor (lysis) (MDA.MB435): 4%
Killing of tumor (lysis) + CYT (MDA.MB435): 3

LVSEFSRMA [H22, Her-2/neu peptide 972-980]
% INHIBITION (HLA A2.1): 14%

QLMPYGCLL [H16, Her-2/neu peptide 799-807]
% INHIBITION (HLA A2.1): 50%

RLLQETELV [H13]
% INHIBITION (HLA A2.1): 56%

TLQGLGISWL [H6, Her-2/neu peptide 444-453]
% INHIBITION (HLA A2.1): 56%

TLSPGKNGV [H24, Her-2/neu peptide 1172-1180]
% INHIBITION (HLA A2.1): 57%

VLQGLPREYV [H8, Her-2/neu peptide 546-555]
% INHIBITION (HLA A2.1): 43%

VLVKSPNHV [H17, Her-2/neu peptide 851-859]
% INHIBITION (HLA A2.1): 12%

VMAGVGSPYV [H7]
% INHIBITION (HLA A2.1): 55%
Killing of tumor (lysis) (MDA.MB231): 26%
Killing of tumor (lysis) + CYT (MDA.MB231): 89
Killing of tumor (lysis) (MCF-7): 7%
Killing of tumor (lysis) + CYT (MCF-7): 40
Killing of tumor (lysis) (BT549): 2%
Killing of tumor (lysis) + CYT (BT549): 36
Killing of tumor (lysis) (SAOS.175): 27%
Killing of tumor (lysis) + CYT (SAOS.175): 35
Killing of tumor (lysis) + CYT (U2-OS): 62
Killing of tumor (lysis) (U2-OS): 30%
Killing of tumor (lysis) (SW480): 2%
Killing of tumor (lysis) + CYT (SW480): 17
Killing of tumor (lysis) (OVCAR-5): 13%
Killing of tumor (lysis) + CYT (OVCAR-5): 23
Killing of tumor (lysis) + CYT (T98G): 93
Killing of tumor (lysis) (T98G): 29%
Killing of tumor (lysis) + CYT (MALME-3M): 14
Killing of tumor (lysis) (MALME-3M): 4%
Killing of tumor (lysis) (SKMEL-5): 16%
Killing of tumor (lysis) + CYT (SKMEL-5): 40
Killing of tumor (lysis) (NCl.H1355): 13%
Killing of tumor (lysis) + CYT (NCl.H1355): 62
Killing of tumor (lysis) (Hep-G2): 4%
Killing of tumor (lysis) + CYT (Hep-G2): 29
Killing of tumor (lysis) + CYT (CASKI): 20
Killing of tumor (lysis) (CASKI): 9%
Killing of tumor (lysis) + CYT (U87G): 1
Killing of tumor (lysis) (U87G): 1%
Killing of tumor (lysis) (ST486): 5%
Killing of tumor (lysis) + CYT (ST486): 8
Killing of tumor (lysis) (LG-2): 1%
Killing of tumor (lysis) + CYT (LG-2): 3
Killing of tumor (lysis) (SV80): 2%
Killing of tumor (lysis) + CYT (SV80): 2
Killing of tumor (lysis) + CYT (JY): 2
Killing of tumor (lysis) (JY): 4%
Killing of tumor (lysis) (MDA.MB435): 1%
Killing of tumor (lysis) + CYT (MDA.MB435): 1
